The conditions of this data set: Liquid; Closed cell (Static) method.

Numbers after ± are expanded uncertainties.

As to `CC(O)C(=O)O` (configuration not stated) [2-hydroxypropanoic acid], the Normal boiling temperature was found to be 125.1 ± 0.2 °C.

For `CC(=O)CC(C)C` [4-methylpentan-2-one], the Normal boiling temperature worked out at 119.2 ± 0.2 °C.

Source of the values: the NIST ThermoML archive (doi:10.1016/j.fluid.2014.06.010).
